Where two headings read alike, the source gives them in different places.

The values that follow come from patent US9000002B2, “N1-substituted-5-fluoro-2-oxopyrimidinone-1(2H)-carboxamide derivatives” (Dow Agrosciences LLC, priority 2009, dated 2015).

Series [1] has as its system Mycosphaerella graminicola; Anamorph: Septoria tritici; Bayer Code SEPTTR. Description: Evaluation of fungicidal activity: leaf blotch of wheat (SEPTTR), wheat plants variety Yuma. In kind it is in vivo. The following applies: Zymoseptoria tritici. On the procedure: Evaluation of Fungicidal Activity: Leaf Blotch of Wheat (Mycosphaerella graminicola; Anamorph: Septoria tritici; Bayer Code […]) Wheat plants (variety Yuma) were grown from seed in a greenhouse in 50% mineral soil/50% soil-less Metro mix until the first leaf was fully emerged, with 7-10 seedlings per pot. These plants were inoculated with an aqueous spore suspension of Septoria tritici either prior to or after fungicide treatments. After inoculation the plants were kept in 100% relative humidity (one day in a dark dew chamber followed by two to three days in a lighted dew chamber) to permit spores to germinate and infect the leaf. The plants were then transferred to a greenhouse for disease to develop. The following table presents the activity of typical compounds of the present disclosure when evaluated in these experiments. The effectiveness of the test compounds in controlling disease was determined by assessing the severity of disease on treated plants, then converting the severity to percent control based on the level of disease on untreated, inoculated plants. • In each case of Table II the rating scale is as follows: […]

[2] abbreviates: 24 h, One-Day Protectant (1DP), 100 ppm, wheat plants, percent control vs untreated inoculated plants, read-out: SEPTTR 100 PPM 1DP (% Disease Control rating).
Where [3] appears, read: 72 h, Three-Day Curative (3DC), 100 ppm, wheat plants, percent control vs untreated inoculated plants, read-out: SEPTTR 100 PPM 3DC (% Disease Control rating).
The mark [4] stands for this setting: 24 h, read-out: SEPTTR 100 PPM 1DP (% Disease Control rating).
[5] abbreviates: 72 h, read-out: SEPTTR 100 PPM 3DC (% Disease Control rating).

`CCCNC(=O)n1cc(F)c(/N=C/N(C)C)nc1=O` [Compound 1, 4-(dimethylamino-methyleneamino)-5-fluoro-2-oxo-2H-pyrimidine-1-carboxylic acid propylamide]: the melting point lay in the range of 266 to 268 °C. Also, in series [1] (setting [2]), the pest or weed control at 100 ppm was in the range of 76 to 100%. For the same molecule, the pest or weed control at 100 ppm in series [1] (setting [3]) is 76 to 100%.
In the case of `CCOC(=O)CCNC(=O)n1cc(F)c(/N=C/N(C)C)nc1=O` [Compound 2], the melting point is 232 to 236 °C. Further, in series [1] (setting [2]), the pest or weed control at 100 ppm was 76 to 100%. Further, the pest or weed control at 100 ppm in series [1] (setting [3]) was 76 to 100%.
In turn, `CN(C)/C=N/c1nc(=O)n(C(=O)NCc2ccccc2)cc1F` [Compound 3, (E)-N-benzyl-4-((dimethylamino)methyleneamino)-5-fluoro-2-oxopyrimidine-1(2H)-carboxamide] came in with a melting point of 147 to 150 °C. The pest or weed control at 100 ppm in series [1] (setting [2]) lay within 76 to 100%. The pest or weed control at 100 ppm in series [1] (setting [3]) is 76 to 100%.
On to `CCCCCNC(=O)n1cc(F)c(N)nc1=O` [Compound 4, 4-amino-5-fluoro-2-oxo-N-pentylpyrimidine-1(2H)-carboxamide], for which the melting point lay within 289 to 292 °C. Further, in series [1] (setting [2]), the pest or weed control at 100 ppm lay in the range of 76 to 100%. For the same molecule, the pest or weed control at 100 ppm in series [1] (setting [3]) lay in the range of 76 to 100%.
With `Nc1nc(=O)n(C(=O)NC2CCCC2)cc1F` [Compound 5, 4-amino-N-cyclopentyl-5-fluoro-2-oxopyrimidine-1(2H)-carboxamide], the melting point is 294 to 297 °C. The pest or weed control at 100 ppm in series [1] (setting [2]) is 76 to 100%. Also, the pest or weed control at 100 ppm in series [1] (setting [3]) was in the range of 76 to 100%.
`Nc1nc(=O)n(C(=O)Nc2ccccc2)cc1F` [Compound 6, 4-amino-5-fluoro-2-oxo-N-phenylpyrimidine-1(2H)-carboxamide]: the melting point is 275 to 277 °C (dec.). Further, in series [1] (setting [4]), the pest or weed control at 100 ppm was in the range of 76 to 100%. The pest or weed control at 100 ppm in series [1] (setting [5]) lay in the range of 76 to 100%.
Consider `COc1ccccc1NC(=O)n1cc(F)c(N)nc1=O` [Compound 7], for which the melting point is 277 to 280 °C (dec.). Also, the pest or weed control at 100 ppm in series [1] (setting [2]) lay in the range of 76 to 100%. Also, the pest or weed control at 100 ppm in series [1] (setting [3]) was in the range of 76 to 100%.
With `Nc1nc(=O)n(C(=O)Nc2ccccc2Cl)cc1F` [Compound 8], the melting point fell in the range of 258 to 261 °C. For the same molecule, the pest or weed control at 100 ppm in series [1] (setting [2]) lay within 76 to 100%. The pest or weed control at 100 ppm in series [1] (setting [3]) lay within 76 to 100%.
`Cc1ccccc1NC(=O)n1cc(F)c(N)nc1=O` [Compound 9]: the melting point is 277 to 280 °C (dec.). The pest or weed control at 100 ppm in series [1] (setting [2]) is 76 to 100%. The pest or weed control at 100 ppm in series [1] (setting [3]) lay in the range of 76 to 100%.
Consider `COc1ccc(NC(=O)n2cc(F)c(N)nc2=O)cc1` [Compound 10], for which the melting point is 252 to 255 °C. The pest or weed control at 100 ppm in series [1] (setting [2]) lay in the range of 76 to 100%. In addition, the pest or weed control at 100 ppm in series [1] (setting [3]) fell in the range of 76 to 100%.
For `Nc1nc(=O)n(C(=O)Nc2ccc(F)c(Cl)c2)cc1F` [Compound 11], the melting point is 251 to 254 °C. Besides, in series [1] (setting [2]), the pest or weed control at 100 ppm fell in the range of 76 to 100%. Moreover, in series [1] (setting [3]), the pest or weed control at 100 ppm fell in the range of 26 to 50%.
For `Nc1nc(=O)n(C(=O)Nc2ccc(Cl)cc2)cc1F` [Compound 12] the same measures were 261 to 264 °C, 76 to 100% and 76 to 100%.
Taken in the same sequence, the figures for `N#Cc1ccc(NC(=O)n2cc(F)c(N)nc2=O)cc1` [Compound 13] were 254 to 257 °C, 76 to 100% and 51 to 75%.
Taken in the same sequence, the figures for `Nc1nc(=O)n(C(=O)Nc2cccc(Cl)c2)cc1F` [Compound 14, 4-amino-N-(3-chlorophenyl)-5-fluoro-2-oxopyrimidine-1(2H)-carboxamide] were 250 to 252 °C, 76 to 100% and 76 to 100%.
Molecule `Cc1ccc(NC(=O)n2cc(F)c(N)nc2=O)cc1` [Compound 15] yielded a melting point of 257 to 260 °C. The pest or weed control at 100 ppm in series [1] (setting [2]) was in the range of 76 to 100%. In addition, the pest or weed control at 100 ppm in series [1] (setting [3]) lay in the range of 76 to 100%.
The molecule `COc1cccc(NC(=O)n2cc(F)c(N)nc2=O)c1` [Compound 16] had a melting point of 242 to 244 °C. In series [1] (setting [2]), the pest or weed control at 100 ppm fell in the range of 76 to 100%. Besides, the pest or weed control at 100 ppm in series [1] (setting [3]) lay in the range of 76 to 100%.
`Nc1nc(=O)n(C(=O)Nc2ccc3ccccc3c2)cc1F` [Compound 17] yielded a melting point of 273 to 275 °C. Also, in series [1] (setting [2]), the pest or weed control at 100 ppm lay within 76 to 100%. The pest or weed control at 100 ppm in series [1] (setting [3]) is 76 to 100%.
With `Cn1ccc2cc(NC(=O)n3cc(F)c(N)nc3=O)ccc21` [Compound 18], the melting point fell in the range of 268 to 270 °C. Besides, in series [1] (setting [2]), the pest or weed control at 100 ppm lay in the range of 76 to 100%. In series [1] (setting [3]), the pest or weed control at 100 ppm was 76 to 100%.
For `Nc1nc(=O)n(C(=O)Nc2ccc3sccc3c2)cc1F` [Compound 19], the melting point is 282 to 284 °C. Besides, in series [1] (setting [2]), the pest or weed control at 100 ppm was 76 to 100%. Moreover, in series [1] (setting [3]), the pest or weed control at 100 ppm lay in the range of 76 to 100%.
Regarding `Nc1nc(=O)n(C(=O)Nc2ccsc2)cc1F` [Compound 20], the melting point was 263 to 265 °C. For the same molecule, the pest or weed control at 100 ppm in series [1] (setting [2]) is 76 to 100%. For the same molecule, the pest or weed control at 100 ppm in series [1] (setting [3]) lay in the range of 76 to 100%.
`Nc1nc(=O)n(C(=O)Nc2ccc(F)cc2)cc1F` [Compound 21] gave a melting point of 257 to 259 °C. Moreover, the pest or weed control at 100 ppm in series [1] (setting [2]) is 76 to 100%. The pest or weed control at 100 ppm in series [1] (setting [3]) is 76 to 100%.
Consider `Nc1nc(=O)n(C(=O)NCc2ccccc2F)cc1F` [Compound 22], for which the melting point is 260 to 262 °C. In addition, in series [1] (setting [2]), the pest or weed control at 100 ppm lay in the range of 76 to 100%. The pest or weed control at 100 ppm in series [1] (setting [3]) lay in the range of 76 to 100%.
The molecule `CCCNC(=O)n1cc(F)c(N)nc1=O` [Compound 23] yielded a melting point of 290 to 293 °C. Further, the pest or weed control at 100 ppm in series [1] (setting [2]) fell in the range of 76 to 100%. Also, the pest or weed control at 100 ppm in series [1] (setting [3]) fell in the range of 76 to 100%.
Consider `CC(C)NC(=O)n1cc(F)c(N)nc1=O` [Compound 24], for which the melting point was 291 to 294 °C. The pest or weed control at 100 ppm in series [1] (setting [2]) lay within 76 to 100%. Besides, in series [1] (setting [3]), the pest or weed control at 100 ppm was 76 to 100%.
Take `CCOC(=O)CNC(=O)n1cc(F)c(N)nc1=O` [Compound 25]: the melting point lay in the range of 220 to 224 °C. In addition, the pest or weed control at 100 ppm in series [1] (setting [2]) is 76 to 100%. The pest or weed control at 100 ppm in series [1] (setting [3]) was 76 to 100%.
Molecule `CSCCNC(=O)n1cc(F)c(N)nc1=O` [Compound 26] returned a melting point of 237 to 239 °C. The pest or weed control at 100 ppm in series [1] (setting [2]) fell in the range of 76 to 100%. Further, the pest or weed control at 100 ppm in series [1] (setting [3]) fell in the range of 76 to 100%.
`COCCCNC(=O)n1cc(F)c(N)nc1=O` [Compound 27]: the melting point lay within 295 to 298 °C. For the same molecule, the pest or weed control at 100 ppm in series [1] (setting [2]) lay within 76 to 100%. Besides, the pest or weed control at 100 ppm in series [1] (setting [3]) lay within 76 to 100%.
For the molecule `O=C(Nc1ccccc1)n1cc(F)c(NCc2ccccc2F)nc1=O` [Compound 28, 5-fluoro-4-(2-fluorobenzylamino)-2-oxo-N-phenylpyrimidine-1(2H)-carboxamide], the melting point was in the range of 154 to 157 °C. For the same molecule, in series [1] (setting [4]), the pest or weed control at 100 ppm was 0 to 25%. Also, the pest or weed control at 100 ppm in series [1] (setting [5]) was in the range of 26 to 50%.
Molecule `O=C(Nc1ccc(F)cc1F)n1cc(F)c(NCc2ccccc2F)nc1=O` [Compound 29] gave a melting point of 150 to 153 °C. Also, in series [1] (setting [2]), the pest or weed control at 100 ppm fell in the range of 0 to 25%. Further, the pest or weed control at 100 ppm in series [1] (setting [3]) is 26 to 50%.
For `Cc1ccc(NC(=O)n2cc(F)c(NCc3ccccc3F)nc2=O)cc1` [Compound 30] the same measures were 158 to 162 °C, 0 to 25% and 26 to 50%.
With `O=C(Nc1cccc(Cl)c1)n1cc(F)c(NCc2ccccc2F)nc1=O` [Compound 31], the melting point was 158 to 160 °C. The pest or weed control at 100 ppm in series [1] (setting [2]) lay in the range of 0 to 25%. In series [1] (setting [3]), the pest or weed control at 100 ppm is 0 to 25%.
Consider `CCCNC(=O)n1cc(F)c(NCc2ccccc2F)nc1=O` [Compound 32], for which the melting point fell in the range of 113 to 116 °C. Further, the pest or weed control at 100 ppm in series [1] (setting [2]) was 26 to 50%. In addition, the pest or weed control at 100 ppm in series [1] (setting [3]) fell in the range of 51 to 75%.
For `CCN(CC)C(=S)n1cc(F)c(/N=C/N(C)C)nc1=O` [Compound 33, (E)-4-((dimethylamino)methyleneamino)-N,N-diethyl-5-fluoro-2-oxopyrimidine-1(2H)-carbothioamide] the same measures were 118 to 123 °C, 0 to 25% and 26 to 50%.
`CN(C(=S)n1cc(F)c(N)nc1=O)c1ccccc1` [Compound 34, 4-amino-5-fluoro-N-methyl-2-oxo-N-phenylpyrimidine-1(2H)-carbothioamide] yielded a melting point of 192 to 196 °C. For the same molecule, the pest or weed control at 100 ppm in series [1] (setting [2]) lay in the range of 76 to 100%. Also, the pest or weed control at 100 ppm in series [1] (setting [3]) lay within 76 to 100%.
With `CN(C(=S)n1cc(F)c(N)nc1=O)c1cccc(C(F)(F)F)c1` [Compound 35], the melting point was in the range of 126 to 131 °C. Also, the pest or weed control at 100 ppm in series [1] (setting [2]) was 76 to 100%. Moreover, the pest or weed control at 100 ppm in series [1] (setting [3]) lay within 76 to 100%.
`CN(C(=S)n1cc(F)c(N)nc1=O)c1cc(Cl)cc(Cl)c1` [Compound 36]: the melting point lay in the range of 200 to 203 °C. For the same molecule, in series [1] (setting [2]), the pest or weed control at 100 ppm lay in the range of 76 to 100%. Further, the pest or weed control at 100 ppm in series [1] (setting [3]) lay within 76 to 100%.
